Source: patent EP2289904A1, “Inhibitors of microbial infections” (Universita' degli Studi di Milano, priority 2009, dated 2011)

Columns and labels:
[1] = system: HIV-1 BaL; assay: trans-infection of CD4+ T lymphocytes by B-THP-1/DC-SIGN cells exposed to virus in continued presence of inhibitor, p24 ELISA
[2] = target: T1, dendritic cell receptor DC-SIGN (Homo sapiens, UniProt Q9NNX6); settings: Reina et al. 2007; cited from earlier work
T1 sequence (Q9NNX6 1-404): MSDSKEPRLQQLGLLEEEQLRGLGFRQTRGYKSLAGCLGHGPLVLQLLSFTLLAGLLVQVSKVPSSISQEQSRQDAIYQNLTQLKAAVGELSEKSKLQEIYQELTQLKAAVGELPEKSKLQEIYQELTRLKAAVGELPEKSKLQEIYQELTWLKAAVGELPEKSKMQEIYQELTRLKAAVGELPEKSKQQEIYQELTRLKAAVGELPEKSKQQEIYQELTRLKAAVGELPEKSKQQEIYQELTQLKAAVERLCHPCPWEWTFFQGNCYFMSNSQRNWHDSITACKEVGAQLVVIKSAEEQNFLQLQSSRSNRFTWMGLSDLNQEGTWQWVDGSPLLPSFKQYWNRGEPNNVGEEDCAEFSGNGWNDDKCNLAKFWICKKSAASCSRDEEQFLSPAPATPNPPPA

[3] = system: Ebola virus; settings: Ebola virus infection model; Reina et al. 2007; cited from earlier work
[4] = system: HIV-1 BaL; assay: trans-infection assay, B-THP-1/DC-SIGN cells incubated with inhibitor and washed before adding the virus; settings: 5 mM, cells washed with buffer before adding virus (BaL); Figure 3

OC[C@H]1OC(O)[C@@H](O)[C@@H](O)[C@@H]1O (some centres unmarked) [Man4]
activity at 100 µM ([1]; Human immunodeficiency virus 1, BAL, CD4+ T, read-out: infection level): ≥ 30%

COC(=O)[C@H]1C[C@H](OCCN=[N+]=[N-])[C@@H](O[C@H]2O[C@H](CO)[C@@H](O)[C@H](O)[C@@H]2O)C[C@@H]1C(=O)OC [compound 1]
binding to DC-SIGN [2]: binds
anti-infective action [3]: moderate anti-infective action

COC(=O)[C@H]1C[C@H](OC[C@H]2O[C@H](OCCN=[N+]=[N-])[C@@H](O)[C@@H](O)[C@@H]2O)[C@@H](O[C@H]2O[C@H](CO)[C@@H](O)[C@H](O)[C@@H]2O)C[C@@H]1C(=O)OC [compound 2b, α(1,2)α(1,6)pseudomannotriose]
antiinfective activity in the trans-infection assay [4]: no antiinfective activity
concentration needed to reach a similar inhibition level, compared with 12 ([1]; HIV-1 BaL, Figure 2): much higher concentration
